US7728028B2, “Substituted imidazoline compounds” (Gruenenthal GmbH, priority 2005, dated 2010)

target: T1, human μ-opiate receptor (Homo sapiens, UniProt P35372); test: Affinity for the human μ-opiate receptor ([3H]-naloxone displacement, SPA); conditions: Table 2, Examples 11-161; test substance 1 μmole/l; inhibition of specific [3H]-naloxone binding; CHO-K1 membranes; read-out: μ-Opioid receptor, % inhibition [1 μM]
T1 construct: purchased PerkinElmer Life Sciences, Zaventem, Belgium RB-HOM; host or cells: CHO-K1 cells (recombinant expression; membrane preparation)
Description: Investigations on the Efficacy of the Compounds According to the Invention Method for Determining the Affinity for the Human μ-Opiate Receptor
The receptor affinity for the human μ-opiate receptor is determined in a homogeneous batch in microtiter plates. For this purpose dilution series of the substances to be tested are incubated with a receptor membrane preparation (15-40 μg protein/250 μl incubation batch) of CHO-K1 cells, which express the human μ-opiate receptor (RB-HOM receptor membrane preparation from PerkinElmer Life Sciences, Zaventem, Belgium), in the presence of 1 nmole/l of the radioactive ligand [^3H]-naloxone (NET719, PerkinElmer Life Sciences company, Zaventem, Belgium) and 1 mg WGA-SPA beads (wheat germ agglutinin SPA beads from Amersham/Pharmacia, Freiburg, Germany) in a total volume of 250 μl for 90 minutes at room temperature. 50 mmole/l of Tris-HCl supplemented with 0.06% bovine serum albumin is used as incubation buffer. In order to determine the non-specific binding, 100 μmole/l of naloxone is additionally added. After the end of the 90 minutes' incubation time the microtiter plates are centrifuged for 20 minutes at 1000 g and the radioactivity is measured in a beta counter (Microbeta-Trilux, PerkinElmer Wallac, Freiburg, Germany). The percentage displacement of the radioactive ligand from its binding to the human μ-opiate receptor at a concentration of the test substances of 1 μmole/l is determined and is given as percentage inhibition of the specific binding.

T1 sequence (P35372 whole entry): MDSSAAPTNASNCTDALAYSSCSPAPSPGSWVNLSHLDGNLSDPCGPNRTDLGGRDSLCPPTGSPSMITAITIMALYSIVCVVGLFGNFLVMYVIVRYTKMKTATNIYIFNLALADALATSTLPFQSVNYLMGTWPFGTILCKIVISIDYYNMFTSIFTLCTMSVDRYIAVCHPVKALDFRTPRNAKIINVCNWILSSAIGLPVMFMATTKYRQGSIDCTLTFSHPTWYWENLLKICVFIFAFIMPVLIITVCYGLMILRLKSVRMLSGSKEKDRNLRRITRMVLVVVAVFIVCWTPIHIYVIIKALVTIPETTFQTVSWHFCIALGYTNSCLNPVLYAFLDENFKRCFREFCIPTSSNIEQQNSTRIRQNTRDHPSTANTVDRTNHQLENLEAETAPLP

Compared with `CCCCN1C=NC(CCC)(C(=O)OC)C1CC1CCC(C(c2ccc(F)cc2)N(C)C)CC1` (stereo not shown) [Example 125, 1-butyl-5-{4-[dimethylamino-(4-fluorophenyl)-methyl]-cyclohexylmethyl}-4-propyl-4,5-dihydro-1H-imidazole-4-carboxylic acid methyl ester], `CCCN1C=NC(CSC)(C(=O)OC)C1CC1CCC(C(c2ccc(F)cc2)N(C)C)CC1` (stereo not shown) [Example 160, 5-{4-[dimethylamino-(4-fluorophenyl)-methyl]-cyclohexylmethyl}-4-methylsulfanylmethyl-1-propyl-4,5-dihydro-1H-imidazole-4-carboxylic acid methyl ester] is lower in inhibition at 1 µM: 91% for the first, 74% for the second.

Going from `CCCCN1C=NC(CCSC)(C(=O)OC)C1CC1CCC(C(c2cccc(F)c2)N(C)C)CC1` (stereo not shown) [Example 123, 1-butyl-5-{4-[dimethylamino-(3-fluorophenyl)-methyl]-cyclohexylmethyl}-4-(2-methylsulfanylethyl)-4,5-dihydro-1H-imidazole-4-carboxylic acid methyl ester] to `CCCN1C=NC(CSC)(C(=O)OC)C1CC1CCC(C(c2cccc(F)c2)N(C)C)CC1` (stereo not shown) [Example 158, 5-{4-[dimethylamino-(3-fluorophenyl)-methyl]-cyclohexylmethyl}-4-methylsulfanylmethyl-1-propyl-4,5-dihydro-1H-imidazole-4-carboxylic acid methyl ester], the inhibition at 1 µM falls from 98% to 95%.

First: CCC(C)C1(C(=O)OC)N=CN(C2CCCCC2)C1CC1CCC(C(c2ccc(F)cc2)N(C)C)CC1 (stereo not shown) [Example 152, 4-sec-butyl-1-cyclohexyl-5-{4-[dimethylamino-(4-fluorophenyl)-methyl]-cyclohexylmethyl}-4,5-dihydro-1H-imidazole-4-carboxylic acid methyl ester]
Second: CCCC1(C(=O)OC)N=CN(C2CCCCC2)C1CC1CCC(C(c2ccc(F)cc2)N(C)C)CC1 (stereo not shown) [Example 105, 1-cyclohexyl-5-{4-[dimethylamino-(4-fluorophenyl)-methyl]-cyclohexylmethyl}-4-propyl-4,5-dihydro-1H-imidazole-4-carboxylic acid methyl ester]
The inhibition at 1 µM of the first is lower: 93% for the first, 95% for the second.

Compared with `COC(=O)C1(Cc2ccc(Cl)cc2)N=CN(Cc2ccccc2)C1C1CCC(C(c2ccc(Cl)cc2)N(C)C)CC1` (stereo not shown) [Example 49, 1-benzyl-4-(4-chlorobenzyl)-5-{4-[(4-chlorophenyl)-dimethylaminomethyl]-cyclohexyl}-4,5-dihydro-1H-imidazole-4-carboxylic acid methyl ester], `COC(=O)C1(Cc2ccc(Cl)cc2)N=CN(Cc2ccccc2)C1C1CCC(C(c2cccc(F)c2)N(C)C)CC1` (stereo not shown) [Example 47, 1-benzyl-4-(4-chlorobenzyl)-5-{4-[dimethylamino-(3-fluorophenyl)-methyl]-cyclohexyl}-4,5-dihydro-1H-imidazole-4-carboxylic acid methyl ester] is lower in inhibition at 1 µM: 84% for the first, 74% for the second.

Compared with `CCCCC1(C(=O)OC)N=CN(CCc2ccccc2)C1C1CCC(C(c2cccc(F)c2)N(C)C)CC1` (stereo not shown) [Example 39, 4-butyl-5-{4-[dimethylamino-(3-fluorophenyl)-methyl]-cyclohexyl}-1-phenethyl-4,5-dihydro-1H-imidazole-4-carboxylic acid methyl ester], `CCCN1C=NC(CSCc2ccccc2)(C(=O)OC)C1C1CCC(C(c2cccc(F)c2)N(C)C)CC1` (stereo not shown) [Example 58, 4-benzylsulfanylmethyl-5-{4-[dimethylamino-(3-fluorophenyl)-methyl]-cyclohexyl}-1-propyl-4,5-dihydro-1H-imidazole-4-carboxylic acid methyl ester] is lower in inhibition at 1 µM: 88% for the first, 81% for the second.

Going from `COC(=O)C1(C)N=CN(CCc2ccccc2)C1CC1CCC(C(c2ccc(F)cc2)N(C)C)CC1` (stereo not shown) [Example 134, 5-{4-[dimethylamino-(4-fluorophenyl)-methyl]-cyclohexylmethyl}-4-methyl-1-phenethyl-4,5-dihydro-1H-imidazole-4-carboxylic acid methyl ester] to `CCCC1(C(=O)OC)N=CN(CCc2ccccc2)C1CC1CCC(C(c2ccc(F)cc2)N(C)C)CC1` (stereo not shown) [Example 132, 5-{4-[dimethylamino-(4-fluorophenyl)-methyl]-cyclohexylmethyl}-1-phenethyl-4-propyl-4,5-dihydro-1H-imidazole-4-carboxylic acid methyl ester], the inhibition at 1 µM rises from 92% to 98%.

First: COC(=O)CCC1(C(=O)OC)N=CN(CCc2ccccc2)C1CC1CCC(C(c2ccc(Cl)cc2)N(C)C)CC1 (stereo not shown) [Example 94, 5-{4-[(4-chlorophenyl)-dimethylaminomethyl]-cyclohexylmethyl}-4-(2-methoxycarbonylethyl)-1-phenethyl-4,5-dihydro-1H-imidazole-4-carboxylic acid methyl ester]
Second: COC(=O)CCC1(C(=O)OC)N=CN(Cc2ccccc2)C1CC1CCC(C(c2ccc(Cl)cc2)N(C)C)CC1 (stereo not shown) [Example 99, 1-benzyl-5-{4-[(4-chlorophenyl)-dimethylaminomethyl]-cyclohexylmethyl}-4-(2-methoxycarbonylethyl)-4,5-dihydro-1H-imidazole-4-carboxylic acid methyl ester]
The inhibition at 1 µM of the first is lower: 97% for the first, 100% for the second.

First: COC(=O)CCC1(C(=O)OC)N=CN(Cc2ccccc2)C1C1CCC(C(c2cccc(F)c2)N(C)C)CC1 (stereo not shown) [Example 95, 1-benzyl-5-{4-[dimethylamino-(3-fluorophenyl)-methyl]-cyclohexyl}-4-(2-methoxycarbonylethyl)-4,5-dihydro-1H-imidazole-4-carboxylic acid methyl ester]
Second: CCCC1(C(=O)OC)N=CN(Cc2ccccc2)C1CC1CCC(C(c2cccc(F)c2)N(C)C)CC1 (stereo not shown) [Example 138, 1-benzyl-5-{4-[dimethylamino-(3-fluorophenyl)-methyl]-cyclohexylmethyl}-4-propyl-4,5-dihydro-1H-imidazole-4-carboxylic acid methyl ester]
The inhibition at 1 µM of the first is lower: 94% for the first, 101% for the second.

Compared with `COC(=O)C1(CSC)N=CN(C2CCCCC2)C1CC1CCC(C(CCc2ccccc2)N(C)C)CC1` (stereo not shown) [Example 155, 1-cyclohexyl-5-[4-(1-dimethylamino-3-phenylpropyl)-cyclohexylmethyl]-4-methylsulfanylmethyl-4,5-dihydro-1H-imidazole-4-carboxylic acid methyl ester], `COC(=O)CCC1(C(=O)OC)N=CN(C2CCCCC2)C1CC1CCC(C(CCc2ccccc2)N(C)C)CC1` (stereo not shown) [Example 154, 1-cyclohexyl-5-[4-(1-dimethylamino-3-phenylpropyl)-cyclohexylmethyl]-4-(2-methoxycarbonylethyl)-4,5-dihydro-1H-imidazole-4-carboxylic acid methyl ester] is lower in inhibition at 1 µM: 86% for the first, 82% for the second.

First: COC(=O)C1(Cc2ccc(Cl)cc2)N=CN(C2CCCCC2)C1CC1CCC(C(c2ccc(Cl)cc2)N(C)C)CC1 (stereo not shown) [Example 18, 4-(4-chlorobenzyl)-5-{4-[(4-chlorophenyl)-dimethylaminomethyl]-cyclohexylmethyl}-1-cyclohexyl-4,5-dihydro-1H-imidazole-4-carboxylic acid methyl ester]
Second: COC(=O)C1(CSC)N=CN(C2CCCCC2)C1CC1CCC(C(c2ccc(Cl)cc2)N(C)C)CC1 (stereo not shown) [Example 55, 5-{4-[(4-chlorophenyl)-dimethylaminomethyl]-cyclohexylmethyl}-1-cyclohexyl-4-methylsulfanylmethyl-4,5-dihydro-1H-imidazole-4-carboxylic acid methyl ester]
The inhibition at 1 µM of the first is lower: 90% for the first, 91% for the second.

`COC(=O)CCC1(C(=O)OC)N=CN(C2CCCCC2)C1CC1CCC(C(c2cccc(F)c2)N(C)C)CC1` (stereo not shown) [Example 147, 1-cyclohexyl-5-{4-[dimethylamino-(3-fluorophenyl)-methyl]-cyclohexylmethyl}-4-(2-methoxycarbonylethyl)-4,5-dihydro-1H-imidazole-4-carboxylic acid methyl ester] and `CCCN1C=NC(CSCc2ccccc2)(C(=O)OC)C1CC1CCC(C(c2ccc(Cl)cc2)N(C)C)CC1` (stereo not shown) [Example 64, 4-benzylsulfanylmethyl-5-{4-[(4-chlorophenyl)-dimethylaminomethyl]-cyclohexylmethyl}-1-propyl-4,5-dihydro-1H-imidazole-4-carboxylic acid methyl ester] are the same in inhibition at 1 µM: 98% for the first, 98% for the second.

Going from `COC(=O)C1(Cc2ccc(Cl)cc2)N=CN(CCc2ccccc2)C1CC1CCC(C(c2ccc(Cl)cc2)N(C)C)CC1` (stereo not shown) [Example 44, 4-(4-chlorobenzyl)-5-{4-[(4-chlorophenyl)-dimethylaminomethyl]-cyclohexylmethyl}-1-phenethyl-4,5-dihydro-1H-imidazole-4-carboxylic acid methyl ester] to `CCCN1C=NC(CCSC)(C(=O)OC)C1CC1CCC(C(CCc2ccccc2)N(C)C)CC1` (stereo not shown) [Example 121, 5-[4-(1-dimethylamino-3-phenylpropyl)-cyclohexylmethyl]-4-(2-methylsulfanylethyl)-1-propyl-4,5-dihydro-1H-imidazole-4-carboxylic acid methyl ester], the inhibition at 1 µM falls from 91% to 77%.

`CCCCN1C=NC(CCC)(C(=O)OC)C1CC1CCC(C(CCc2ccccc2)N(C)C)CC1` (stereo not shown) [Example 127, 1-butyl-5-[4-(1-dimethylamino-3-phenylpropyl)-cyclohexylmethyl]-4-propyl-4,5-dihydro-1H-imidazole-4-carboxylic acid methyl ester] showed an inhibition at 1 µM of 74%.
